Reference: patent US8084649B2, “Herbicides” (Syngenta Crop Protection, inc., priority 2007, dated 2011)

Tests used:
Assay type in all cases: in vivo
[1] = test system: Alopecurus myosuroides (ALOMY); experiment: Pre-emergence herbicidal activity, glasshouse pot test; settings: Alopecurus myosuroides, 480 h, rate 500 g/ha, evaluated after 20 days, read-out: Pre-emergence activity, ALOMY (100=total damage to plant; 0=no damage to plant)
Summary of the method: (§1)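 Visual damage score 0–100 (100 = plant totally killed), taken 20 days after treatment. Spray was applied to pots of sterilised standard soil one day post-sowing, using an aqueous solution of compound in acetone and a surfactant/solvent blend (Emulsogen EL, NMP, DPGME, X-77).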

Avena fatua (AVEFA) [2] = experiment: as above; settings: Avena fatua, 480 h, rate 500 g/ha, evaluated after 20 days, read-out: Pre-emergence activity, AVEFA (100=total damage to plant; 0=no damage to plant)
Summary of the method: as §1

[3] = test system: Digitaria sanguinalis (DIGSA); experiment: as above; settings: Digitaria sanguinalis, 480 h, rate 500 g/ha, evaluated after 20 days, read-out: Pre-emergence activity, DIGSA (100=total damage to plant; 0=no damage to plant)
Summary of the method: as §1

[4] = test system: Echinochloa crus-galli (ECHCG); experiment: as above; settings: Echinochloa crus-galli, 480 h, rate 500 g/ha, evaluated after 20 days, read-out: Pre-emergence activity, ECHCG (100=total damage to plant; 0=no damage to plant)
Summary of the method: as §1

Lolium perenne (LOLPE) [5] = experiment: as above; settings: Lolium perenne, 480 h, rate 500 g/ha, evaluated after 20 days, read-out: Pre-emergence activity, LOLPE (100=total damage to plant; 0=no damage to plant)
Summary of the method: as §1

Setaria faberi (SETFA) [6] = experiment: as above; settings: Setaria faberi, 480 h, rate 500 g/ha, evaluated after 20 days, read-out: Pre-emergence activity, SETFA (100=total damage to plant; 0=no damage to plant)
Summary of the method: as §1

[7] = test system: Alopecurus myosuroides (ALOMY); experiment: Post-emergence herbicidal activity, glasshouse pot test; settings: Alopecurus myosuroides, rate 500 g/ha, evaluated after 14 or 15 days, read-out: Post-emergence activity, ALOMY (100=total damage to plant; 0=no damage to plant)
Summary of the method: (§2)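 Test species were grown in sterilised soil for 10 days, sprayed post-emergence with the aqueous formulated compound, and kept in a greenhouse under optimum conditions. Herbicidal effect was assessed after 14 or 15 days as percent damage, where 0 means no effect.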

Avena fatua (AVEFA) [8] = experiment: as above; settings: rate 500 g/ha, evaluated after 14 or 15 days; for pest or weed control at 500 g/ha: Avena fatua, read-out: Post-emergence activity, AVEFA (100=total damage to plant; 0=no damage to plant)
Summary of the method: as §2

[9] = test system: Digitaria sanguinalis (DIGSA); experiment: as above; settings: Digitaria sanguinalis, rate 500 g/ha, evaluated after 14 or 15 days, read-out: Post-emergence activity, DIGSA (100=total damage to plant; 0=no damage to plant)
Summary of the method: as §2

[10] = test system: Echinochloa crus-galli (ECHCG); experiment: as above; settings: Echinochloa crus-galli, rate 500 g/ha, evaluated after 14 or 15 days, read-out: Post-emergence activity, ECHCG (100=total damage to plant; 0=no damage to plant)
Summary of the method: as §2

Lolium perenne (LOLPE) [11] = experiment: as above; settings: Lolium perenne, rate 500 g/ha, evaluated after 14 or 15 days, read-out: Post-emergence activity, LOLPE (100=total damage to plant; 0=no damage to plant)
Summary of the method: as §2

Setaria faberi (SETFA) [12] = experiment: as above; settings: Setaria faberi, rate 500 g/ha, evaluated after 14 or 15 days, read-out: Post-emergence activity, SETFA (100=total damage to plant; 0=no damage to plant)
Summary of the method: as §2

SMILES	pest or weed control at 500 g/ha [1] [%]	pest or weed control at 500 g/ha (Avena fatua (AVEFA) [2]) [%]	pest or weed control at 500 g/ha [3] [%]	pest or weed control at 500 g/ha [4] [%]	pest or weed control at 500 g/ha (Lolium perenne (LOLPE) [5]) [%]	pest or weed control at 500 g/ha (Setaria faberi (SETFA) [6]) [%]	pest or weed control at 500 g/ha [7] [%]	pest or weed control at 500 g/ha (Avena fatua (AVEFA) [8]) [%]	pest or weed control at 500 g/ha [9] [%]	pest or weed control at 500 g/ha [10] [%]	pest or weed control at 500 g/ha (Lolium perenne (LOLPE) [11]) [%]	pest or weed control at 500 g/ha (Setaria faberi (SETFA) [12]) [%]	Post-emergence activity, AVEFA (100=total damage to plant; 0=no damage to plant) (Avena fatua (AVEFA) [8])
CSCCC1CC(=O)C(c2c(C)cc(C)cc2C)=C(O)C1 (stereo not drawn) [Compound T12]	70	20	0	30	40	0	80	30	90	80	60	90	
CCc1cc(C)cc(C)c1C1=C(O)CC(CCSC)CC1=O (stereo not drawn) [Compound T13]	100	70	100	80	100	80	90	80	100	90	80	90	
CCc1cc(C)cc(CC)c1C1=C(O)CC(CCS(C)(=O)=O)CC1=O (stereo not drawn) [Compound T14]	90	100	100	100	100	100	90		100	100	90	100	90
CCc1cc(C)cc(CC)c1C1=C(O)CC(CC[S+](C)[O-])CC1=O (stereo not drawn) [Compound T15]	100	80	100	100	100	90	90	80	100	100	100	80	
CCc1cc(C)cc(CC)c1C1=C(O)CC(CCSC)CC1=O (stereo not drawn) [Compound T16]	90	70	100	90	100	100	100	80	100	70	90	90	
CCc1cc(C)cc(CC)c1C1=C(O)CC(CC(C)SC)CC1=O (stereo not drawn) [Compound T17]	90	90	100	100	100	100	0	90	100	90	100	90	
CSC(C)CC1CC(=O)C(c2c(C)cc(C)cc2C)=C(O)C1 (stereo not drawn) [Compound T18]	20	10	60	70	10	40	60	60	80	70	70	80	
